Laboratory results: US5719287A, “Intermediates for inhibitors of HIV protease and method of preparation thereof” (Eli Lilly and Company, priority 1995, dated 1998)

Assays:
HIV-1 protease [1] = biological target: T1, HIV-1 protease (Human immunodeficiency virus type 1 group M subtype B, UniProt P04585); experiment: Western Blot Analysis of HIV Protease Inhibition Assay (HIV-1 protease produced in E. coli, processing of gag polyprotein Pr48^gag); assay type: biochemical; conditions: yield of p17 from gag polyprotein; 30 min preincubation at room temperature, one hour at 37° C.
T1 construct: Purified HIV-1 protease was obtained as described below; made in house; host or cells: E. coli K12 L507/pHP10D (NRRL B-18560)
Experimental: The compounds of the present invention were also tested for their ability to block HIV protease processing of Pr48^gag (a recombinant polyprotein containing p 17, p24 and p7).
A. Culture of E. coli K12 L507/DHP10D
Lyophils of E. coli K12 L507/pHP10D are obtained from the Northern Regional Research Laboratory, Peoria, Ill. 61604, under the accession number NRRL B-18560 (deposited Nov. 14, 1989). The lyophils are decanted into tubes containing 10 ml LB medium (10 g Bacto-tryptone, 5 g Bacto-yeast extract, and 10 g NaCl per liter; pH is adjusted to 7.5) and incubated at 32° C., overnight.
A small portion of the overnight culture was placed on LB-agar (LB medium with 15 g/l Bacto-agar) plates containing 12.5 μg/ml tetracycline in a manner so as to obtain a single colony isolate of E. coli K12 L507/pHP10D.The single colony obtained was inoculated into 10 ml of LB medium containing 12.5 μg/ml tetracycline and incubated overnight at 32° C. with vigorous shaking. The 10 ml overnight culture was inoculated into LB medium containing 12.5 μg/ml tetracycline and incubated at 32° C. with vigorous shaking until the culture reached mid-log phase.
B. Culture of E. coli K12 L507/pHGAG
Lyophils of E. coli K12 L507/pHGAG are obtained from the NRRL under the accession number NRRL B-18561 (deposited Nov. 14, 1989). A purified colony of E. coli K 12 L507/pHGAG was isolated, and used as an inoculum for a culture which was grown to mid-log phase in substantial accordance with the teaching of Step A above for E. Coli K12 L507/pHP10D.
C. Preparation of Protease and gag fractions
A culture of E. coli K12 L507/pHP10D was grown to mid-log phase at 32° C. in LB media containing 12.5 μg/ml tetracycline. The cultivation temperature was quickly elevated to 40° C. to induce gene expression, and the cells were allowed to grow for 2.5 hours at this temperature before the culture was quickly chilled on ice. The cells were centrifuged and the cell pellet was resuspended in 20 ml 50 mmol MES buffer (pH 6.0) containing 1 mmol EDTA, 1 mmol DTT, 1 mmol PMSF, and 10% glycerol (Buffer A). Cells were lysed by sonication using a Fischer Model 300 Dismembrator and a microtip probe. […] Enzymatic activity was measured by HPLC using the synthetic peptide SQNYPIV as described in Margolin et al., Biochem. Biophys. Res. Commun., 167, 554-560 (1990); the production of the pl peptide (SQNY) was measured.
Active fractions were pooled, made 1.2M in ammonium sulfate, and applied to a hexyl agarose column (2.0×18 cm) equilibrated in Buffer A containing 1.2M ammonium sulfate. The sample, in 125 ml (1.85 mg/ml), was loaded at a flow rate of 1 ml/min at 4° C. […] The column was then washed isocratically in Buffer A for 120 min. Active fractions were pooled, concentrated to 10 ml using an Amicon stirred cell with a YM-10 membrane, and applied at 1 ml/min to a MonoS cation exchange column (1.0×10 cm) equilibrated in Buffer A. After washing isocratically for 30 min, protease was eluted using a linear gradient of 0-0.45M NaCl in Buffer A over 40 min followed by an isocratic wash with Buffer A containing 0.45M NaCl over 30 min. Chromatography was performed at 25° C.
Pooled active fractions were concentrated to 200 ul using an Amicon stirred cell and a YM-10 membrane, and the protease was then applied to a Superose 6 size exclusion column equilibrated in Buffer A containing 0.1M NaCl. The column was washed isocratically in this buffer at a flow rate of 0.5 ml/min.
QAE-Sepharose, and hexyl agarose were purchased from Sigma Chemical Company. Superose 6 and MonoS were products of Pharmacia. Buffers and reagents were obtained from Sigma.
In an analogous manner, a culture of E. coli K12 507/pHGAG was grown to mid-log phase at 32° C. then shifted to 40° C. for about 4 to 5 hours. The culture was chilled on ice and centrifuged, then the pellet was resuspended in 8 ml lysis buffer containing 5 mg/ml lysozyme.

HIV-1 protease [2] = biological target: T1, HIV-1 protease; experiment: biochemical; conditions: for IC50: read-out: Fluorescence Assay IC50 (converted)
Outline: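 Purified recombinant HIV-1 protease from E. coli preincubated 1 h at room temperature with compound in 20% aqueous DMSO, then biotin-peptide-FITC substrate added in MES-ALB buffer for 16 h at room temperature. Cleavage measured by avidin-bead capture, fluorescence ex 485/em 535 nm.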

[3] = purified HIV-1 protease, MES-ALB buffer pH 5.5, 1 h preincubation, 16 h with substrate, room temperature, IC50 values for Examples 2-70 are standardized relative to Ex 1

Row | Compound | IC50 (HIV-1 protease [1]) [nM] | IC50 (HIV-1 protease [2]; [3]) [nM] | IC50 (HIV-1 protease [2]) [nM] | Fluorescence Assay IC50 (HIV-1 protease [2]; [3]) [ng/mL]
1 | Cc1ccc(C[C@@H](O)[C@H](Cc2ccccc2)NC(=O)[C@H](CC(N)=O)NC(=O)c2ccc3ccccc3n2)c(C(=O)NC(C)(C)C)c1 [Example 2, [1S-(1R*, 4R*, 5S*)]-N-(1-(2-amino-2-oxoethyl)-2-oxo-3-aza-4-phenylmethyl-5-hydroxy-6-(2-(1-t-butylamino-1-oxomethyl)-4-methylphenyl)hexyl)-2-quinolinyl carboxamide] | 50 | 3.37 |  | 
2 | Cc1cccc(C[C@@H](O)[C@H](Cc2ccccc2)NC(=O)[C@H](CC(N)=O)NC(=O)c2ccc3ccccc3n2)c1C(=O)NC(C)(C)C [Example 3, [1S-(1R*, 4R*, 5S*)]-N-(1-(2-amino-2-oxoethyl)-2-oxo-3-aza-4-phenylmethyl-5-hydroxy-6-(2-(1-t-butylamino-1-oxomethyl)-3-methylphenyl)hexyl)-2-quinolinyl carboxamide] | 60 |  | 28.9 | 
3 | CC(C)(C)NC(=O)c1c(C[C@@H](O)[C@H](Cc2ccccc2)NC(=O)[C@H](CC(N)=O)NC(=O)c2ccc3ccccc3n2)ccc2ccccc12 [Example 4, [1S-(1R*, 4R*, 5S*)]-N-(1-(2-amino-2-oxoethyl)-2-oxo-3-aza-4-phenylmethyl-5-hydroxy-6-(1-(1-t-butylamino-1-oxomethyl)-2-naphthyl)hexyl)-2-quinolinyl carboxamide] | 2.7 |  | 4.4 | 
4 | CCC(C)(C)NC(=O)c1ccccc1C[C@@H](O)[C@H](Cc1ccccc1)NC(=O)[C@H](CC(N)=O)NC(=O)c1ccc2ccccc2n1 [Example 8, [1S-(1R*, 4R*, 5S*)]-N-(1-(2-amino-2-oxoethyl)-2-oxo-3-aza-4-phenylmethyl-5-hydroxy-6-(2-(1-(1.1-dimethylpropylamino)-1-oxomethyl)phenyl)hexyl)-2-quinolinyl carboxamide] | 1.5 |  | 4.81 | 
5 | CC(C)(C)NC(=O)c1ccccc1C[C@@H](O)[C@H](Cc1ccccc1)NC(=O)[C@H](CC(N)=O)NC(=O)c1nccc2ccccc12 [Example 13] | 9 | 13.1 |  | 
6 | CC(C)[C@H](NC(=O)c1ccc2ccccc2n1)C(=O)N[C@@H](Cc1ccccc1)[C@H](O)Cc1ccccc1C(=O)NC(C)(C)C [Example 16, [1S-(1R*, 4R*, 5S*)]-N-(1-(2-propyl)-2-oxo-3-aza-4-phenylmethyl-5-hydroxy-6-(2-(1-t-butylamino-1-oxomethyl)phenyl)hexyl)-2-quinolinyl carboxamide] | 1 |  | 57.2 | 
7 | CC1(NC(=O)c2ccccc2C[C@@H](O)[C@H](Cc2ccccc2)NC(=O)[C@H](CC(N)=O)NC(=O)c2ccc3ccccc3n2)CCCC1 [Example 69, [1S-(1R*, 4R*, 5S*) ]-N-(1-(2-amino-2-oxoethyl) -2-oxo-3-aza-4-phenylmethyl-5-hydroxy-6-(2-(1-(1-methylcyclopent-1-yl)amino-1-oxomethyl)phenyl)hexyl)-2-quinolinyl carboxamide] |  |  | 1.2 | 

Now from value to compound:

Row | IC50 (HIV-1 protease [1]) [nM] | IC50 (HIV-1 protease [2]; [3]) [nM] | IC50 (HIV-1 protease [2]) [nM] | Fluorescence Assay IC50 (HIV-1 protease [2]; [3]) [ng/mL] | Compound
8 | 100 |  | 142 |  | CC(C)(C)NC(=O)c1ccccc1C[C@@H](O)[C@H](Cc1ccccc1)NC(=O)[C@H](CC(N)=O)NC(=O)c1nc2ccccc2[nH]1 [Example 14, [1S-(1R*, 4R*, 5S*)]-N-(1-(2-amino-2-oxoethyl)-2-oxo-3-aza-4-phenylmethyl-5-hydroxy-6-(2-(1-t-butylamino-1-oxomethyl)phenyl)hexyl)-2-benzimidazolyl carboxamide]
9 | 1.6 | 4.23 |  |  | CC(C)(C)NC(=O)c1ccccc1C[C@@H](O)[C@H](Cc1ccccc1)NC(=O)[C@H](CC(N)=O)NC(=O)COc1cccc2ccccc12 [Example 15, [2R-(2R*, 3S*, 6S*)]-N-t-butyl-2-(2-hydroxy-3-phenylmethyl-4,7-diaza-5,8,-dioxo-6-(2-amino-2-oxoethyl)-9-(naphthyloxy)nonyl)benzamide]
10 | 0.5 |  | 1.9 |  | CC(C)(C)NC(=O)c1ccccc1C[C@@H](O)[C@H](Cc1ccccc1)NC(=O)[C@H](Cc1cnc[nH]1)NC(=O)c1ccc2ccccc2n1 [Example 17, [1S-(1R*, 4R*. 5S*)]-N-(1-(4-imidazolylmethyl)-2-oxo-3-aza-4-phenylmethyl-5-hydroxy-6-(2-(1-t-butylamino-1-oxomethyl)phenyl)hexyl)-2-quinolinyl carboxamide]
11 |  |  | 0.23 |  | CC(C)c1ccc(C(=O)NC(C)(C)C)c(C[C@@H](O)[C@H](Cc2ccccc2)NC(=O)[C@H](CC(N)=O)NC(=O)c2ccc3ccccc3n2)c1 [Example 68, [1S-(1R*, 4R*, 5S,)]-N-(1-(2-amino-2-oxoethyl)-2-oxo-3-aza-4-phenylmethyl-5-hydroxy-6-(2-(1-t-butylamino-1-oxomethyl)-5-isopropylphenyl)hexyl)-2-quinolinyl carboxamide]
12 |  |  | 0.785 |  | CC(C)(C)NC(=O)c1ccccc1C[C@@H](O)[C@H](Cc1ccccc1)NC(=O)[C@H](CC(=O)NCc1c[nH]c2ccccc12)NC(=O)c1ccc2ccccc2n1 [Example 70, [1S-(1R*, 4R*, 5*)]-N-(1-(2-(N-indol-3-ylmethyl)amino)-2-oxoethyl)-2-oxo-3-aza-4-phenylmethyl-5-hydroxy-6-(2-(1-t-butylamino-1-oxomethyl)phenyl)hexyl)-2-quinolinyl carboxamide]
13 |  |  |  | 1.4 | [1S-(1R*, 4R*, 5S*)]-N-(1-(2-amino-2-oxoethyl)-2-oxo-3-aza-4-phenylmethyl-5-hydroxy-6-(2- (1-t-butylamino-1-oxomethyl)phenyl)hexyl)-2(6, 7, 8, 9-tetrahydronaphthyl) carboxamide [Example 33]
